The values below come from ChEMBL document CHEMBL3286089, “Multiparameter optimization in CNS drug discovery: design of pyrimido[4,5-d]azepines as potent 5-hydroxytryptamine 2C (5-HT₂C) receptor agonists with exquisite functional selectivity over 5-HT₂A and 5-HT₂B receptors” (J Med Chem, 2014).

Series [1] in a line: Intrinsic clearance in human liver microsomes. In kind it is ADME. Particulars: read-out: CLH.
Series [2] is described as follows: Intrinsic clearance in human hepatocytes assessed as 10^6 cells. The series is classed as ADME, cell-based, Hepatocyte. Particulars: read-out: CLH.
Series [3] can be described thus: Intrinsic clearance in dog liver microsomes. The series is classed as ADME, Canis lupus familiaris.
Series [4] in a line: Dissociation constant, pKa of the compound. In kind it is physicochemical.
A short description of series [5]: Octanol-water partition coefficient, log D of the compound at pH 7.4. In kind it is physicochemical.
A short description of series [6]: Intrinsic clearance in rat liver microsomes. The series is classed as ADME. Conditions: read-out: CLH. On the technique in general: Microsomes from liver hold many membrane-bound enzymes, among them those of drug oxidation.

Broadly, the pKa is the pH at which an ionisable group is half protonated. One may read the logD as the decadic logarithm of the distribution of all forms, ionised or not, between an organic phase and buffer at a given pH. Low readings indicate lower lipophilicity, high ones higher lipophilicity. In the case of `CNc1nc(Cc2ccccc2)nc2c1CCNC[C@@H]2C`, the microsomal CLint stood at 16 µL/min/mg in series [1], 114 µL/min/mg in series [3] and 329 µL/min/mg in series [6]. The hepatocyte CLint in series [2] turned out to be 3.4 µL/min/1e6 cells. In series [4], this compound had a pKa of 8.6. This compound also had a log distribution coefficient (logD) in series [5] of 0.7.

As to `Nc1nc(Cc2ccccc2)nc2c1CCNCC2`, the logD in series [5] stood at 0.1.

Regarding `CNc1nc(Cc2ccccc2)nc2c1CCNC[C@H]2C`, in series [5], the log distribution coefficient (logD) came out at 0.7.
